Test results from PubChem BioAssay (NCI).
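The compound was tested at five concentrations on cells cultured in 96-well plates, with a 48-hour exposure period. Definition used: TGI = concentration required for complete inhibition of growth.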

Experiments:
Assay in all cases: growth of human tumour cells (NCI), 48 h
NCI-H23 lung = system: NCI-H23 lung
A549 NSCLC = system: A549 NSCLC
HOP-18 NSCLC = system: HOP-18 NSCLC
NCI-H226 lung = system: NCI-H226 lung
HCT-116 colon = system: HCT-116 colon
RPMI-8226 leukemia = system: RPMI-8226 leukemia
SR leukemia = system: SR leukemia
SNB-78 CNS = system: SNB-78 CNS
HT29 colon = system: HT29 colon
IGROV1 ovarian = system: IGROV1 ovarian
SW-620 colon = system: SW-620 colon
M19-MEL melanoma = system: M19-MEL melanoma
K-562 leukemia = system: K-562 leukemia
SK-OV-3 ovarian = system: SK-OV-3 ovarian
SNB-19 CNS = system: SNB-19 CNS
HOP-62 NSCLC = system: HOP-62 NSCLC
RXF-631 renal = system: RXF-631 renal
LXFL 529 NSCLC = system: LXFL 529 NSCLC
SNB-75 CNS = system: SNB-75 CNS
SF-539 CNS = system: SF-539 CNS
786-0 renal = system: 786-0 renal
DMS 273 small cell lung = system: DMS 273 small cell lung
COLO 205 colon = system: COLO 205 colon
U251 CNS = system: U251 CNS
MOLT-4 leukemia = system: MOLT-4 leukemia
SN12C renal = system: SN12C renal
UACC-257 melanoma = system: UACC-257 melanoma
NCI-H460 lung = system: NCI-H460 lung
OVCAR-5 ovarian = system: OVCAR-5 ovarian
HL-60(TB) leukemia = system: HL-60(TB) leukemia
SK-MEL-2 melanoma = system: SK-MEL-2 melanoma
XF 498 CNS = system: XF 498 CNS
ACHN renal = system: ACHN renal
A498 renal = system: A498 renal
HCC-2998 colon = system: HCC-2998 colon
OVCAR-3 ovarian = system: OVCAR-3 ovarian
SK-MEL-5 melanoma = system: SK-MEL-5 melanoma
RXF 393 renal = system: RXF 393 renal
M14 melanoma = system: M14 melanoma
UACC-62 melanoma = system: UACC-62 melanoma
OVCAR-4 ovarian = system: OVCAR-4 ovarian
SF-295 CNS = system: SF-295 CNS
HCT-15 colon = system: HCT-15 colon
OVCAR-8 ovarian = system: OVCAR-8 ovarian
EKVX NSCLC = system: EKVX NSCLC
KM12 colon = system: KM12 colon
DLD-1 colon = system: DLD-1 colon
UO-31 renal = system: UO-31 renal
TK-10 renal = system: TK-10 renal
CAKI-1 renal = system: CAKI-1 renal
MALME-3M melanoma = system: MALME-3M melanoma
NCI-H522 lung = system: NCI-H522 lung
CCRF-CEM leukemia = system: CCRF-CEM leukemia
KM20L2 colon = system: KM20L2 colon

Measured: TGI

N=S(=O)(c1ccccc1)c1ccccc1[N+](=O)[O-] (centres undefined)
> 100 µM: NCI-H23 lung | A549 NSCLC | HOP-18 NSCLC | NCI-H226 lung | HCT-116 colon | RPMI-8226 leukemia | SR leukemia | SNB-78 CNS | HT29 colon | IGROV1 ovarian | SW-620 colon | M19-MEL melanoma | K-562 leukemia | SK-OV-3 ovarian | SNB-19 CNS | HOP-62 NSCLC | RXF-631 renal | LXFL 529 NSCLC | SNB-75 CNS | SF-539 CNS | 786-0 renal | DMS 273 small cell lung | COLO 205 colon | U251 CNS | MOLT-4 leukemia | SN12C renal | UACC-257 melanoma | NCI-H460 lung | OVCAR-5 ovarian | HL-60(TB) leukemia | SK-MEL-2 melanoma | XF 498 CNS | ACHN renal | A498 renal | HCC-2998 colon | OVCAR-3 ovarian | SK-MEL-5 melanoma | RXF 393 renal | M14 melanoma | UACC-62 melanoma | OVCAR-4 ovarian | SF-295 CNS | HCT-15 colon | OVCAR-8 ovarian | EKVX NSCLC | KM12 colon | DLD-1 colon | UO-31 renal | TK-10 renal | CAKI-1 renal | MALME-3M melanoma | NCI-H522 lung | CCRF-CEM leukemia | KM20L2 colon
